Publication PMC6272869, “Simultaneous Determination of Multiple Components in Guanjiekang in Rat Plasma via the UPLC–MS/MS Method and Its Application in Pharmacokinetic Study” (Molecules, 2016)
Read-outs that look alike come from different tables or passages of the source.

Assays:
[1] = Stability of the analytes in rat plasma under different storage conditions (QC samples); assay type: in vitro ADME; conditions: n = 3; for Remaining (%) / remaining at 4 h / remaining at 360 h: rat plasma; for Remaining (%): freeze–thaw cycles (three); for remaining at 24 h / remaining at 4 h / remaining at 360 h: rat; for remaining at 24 h: extracted plasma QC samples in auto-sampler, 4 °C for 24 h; for remaining at 4 h: 25 °C for 4 h; for remaining at 360 h: at −70 °C for 15 days
Protocol: The stability of the seven compounds in rat plasma was assessed by analyzing the QC samples at three concentrations under different sample storage conditions and processing procedures. Short-term stability was assessed by analyzing the QC samples that were kept at room temperature for 4 h, which exceeded the routine sample preparation time. […] Freeze-thaw stability was investigated after three freeze (−40 °C) and thaw (room temperature) cycles. Post-preparation stability was assessed by analyzing the extracted QC samples that were kept in the auto-sampler at 4 °C for […]. All stability testing QC samples were evaluated using the calibration curve of the freshly prepared samples.

[2] = Pharmacokinetic study in rats after single oral administration of GJK (UPLC-MS/MS of plasma); assay type: in vivo, Sprague–Dawley rats; conditions: single oral GJK 24 g/kg; for AUC(0-inf) / half-life / Cmax / MRT last / AUC(0-t) / Tmax: Sprague-Dawley; for AUC(0-inf) / half-life / Cmax / MRT last / AUC(0-t) / Tmax (time to reach peak concentration): rat plasma; for AUC(0-inf): n = 6, AUC0–t extrapolated to infinity; for AUC(0-inf) / AUC(0-t): mean ± S.D.; for half-life / Cmax / MRT last: n = 6, mean ± S.D.; for half-life: non-compartmental, read-out: T1/2z (terminal elimination half-life); for Cmax: read-out: Cmax (maximum plasma concentration); for MRT last: read-out: MRT0–t (mean residence time) (converted); for AUC(0-t): n = 6, zero to last sampling time; for Tmax: rat, po, 24 g/kg, read-out: Tmax (time to reach peak concentration) (converted); for Tmax / Tmax (time to reach peak concentration): n = 6, median (minimum, maximum)
Protocol: Chromatographic analyses were performed using an Agilent 1290 series UPLC system (Agilent Technologies, Santa Clara, CA, USA) equipped with a binary pump, an online degasser, an auto plate sampler, and a thermostatically controlled column compartment. The determination was carried out at 30 °C on a Waters Acquity UPLC C18 column (100 mm × 2.1 mm, […], Waters, Milford, MA, USA). The mobile phase consisted of 0.1% formic acid (A) and acetonitrile (B) using a gradient elution of 10%–34% B at 0–6 min, 34%–80% B at 6–10 min, 80% B at 10–12 min, 10% B at 12–15 min, and the re-equilibration time of gradient elution was 1 min. The sample injection volume was 5 µL, and the flow rate was 0.35 mL/min. The MS detection was performed using an Agilent 6460 Triple Quadrupole MS (Agilent Technologies) equipped with an electrospray ionization (ESI) source. […] Other parameters were as follows: drying gas (N2) flow rate, 11.0 L/min.
Plasma samples (50 µL) were thawed on ice and mixed with 200 µL of IS (20.0 ng/mL) via vortexing for 1 min. Then, the mixture was centrifuged at 13,500 rpm for 15 min to separate the precipitated protein at 4 °C. The supernatant was transferred into a clean Eppendorf tube and evaporated to dryness under a stream of nitrogen. The residues were reconstituted with 50 µL of water–methanol (50:50, v/v), vortexed and centrifuged at 13,500 rpm for 15 min. Then, the supernatants were injected into the UPLC–MS/MS for analysis.
Sprague–Dawley rats (200–250 g) were obtained from the Center of the Chinese University of Hong Kong and were kept in an environmentally controlled room (temperature: 25 ± 2 °C, humidity: 50% ± 5%, 12 h dark-light cycle) for at least 7 days before the experiments. Prior to the experiments, the animals were fasted for 24 h with water ad libitum. All protocols of animal experiments were approved in accordance with the regulations of the Experimental Animal Administration issued by the Macau University of Science and Technology.
The blood samples (100 µL) were individually collected from the caudal vein into heparinized tubes before administration, and 5, 10, 15, 30, 45, 60, 90, 120, 240, 360, 480, 720 and 1440 min after administration, and then immediately centrifuged at 4500 rpm for 15 min. […] The main PK parameters, including the maximum plasma concentration (Cmax), time to reach Cmax (Tmax), half-life time (T1/2), area under the curve (AUC 0–t and AUC 0–∞) and mean residence time (MRT), were calculated via the non-compartment model using the pharmacokinetic software, PK Solutions 2.0 (Summit Co., Montrose, CO, USA).

[3] = tested on: phosphorylation of ERK, JNK, IKK stimulated by TNF-α; set-up: method as in PMID 23978582; conditions: cited from earlier work
[4] = tested on: ages-induced mesangial cell damage; set-up: method as in PMID 23881455; conditions: in vitro; read-out: IC50 of antioxidative and anti-inflammatory activities; cited from earlier work
[5] = tested on: NLRP3-activated ASC oligomerization; set-up: method as in PMID 25210146; conditions: cited from earlier work
[6] = tested on: toll-like receptor 4 (TLR4)/MD2 complex; set-up: method as in PMID 22422925; conditions: cited from earlier work
[7] = tested on: NLRP3-dependent interleukin (IL)-1β production; set-up: method as in PMID 25210146; conditions: cited from earlier work
[8] = plasma, medium QC concentration

Row | SMILES | Remaining (%) ([1]; high QC concentration) | Remaining (%) ([1]; low QC concentration) | Remaining (%) ([1]; medium QC concentration) | remaining at 24 h ([1]; plasma, high QC concentration) | remaining at 24 h ([1]; plasma, low QC concentration) | remaining at 24 h [1, 8] | remaining at 4 h ([1]; plasma, high QC concentration) | remaining at 4 h ([1]; plasma, low QC concentration) | remaining at 4 h [1, 8] | remaining at 360 h ([1]; plasma, high QC concentration) | remaining at 360 h ([1]; plasma, low QC concentration) | remaining at 360 h [1, 8] | AUC(0-inf) ([2]; in vivo) | half-life ([2]; in vivo) | Cmax ([2]; in vivo) | MRT last ([2]; in vivo) | AUC(0-t) ([2]; in vivo) | Tmax ([2]; in vivo) | Tmax (time to reach peak concentration) [2] | Tmax ([2]; plasma) | also measured
1 | COCC12CCC(OC)C34C5CC6(O)C(OC)C(O)C(O)(C5C6OC(=O)c5ccccc5)C(C(OC)C13)C4N(C)C2 (stereo not shown) [Benzoylhypaconine, benzoylhypaconine] | 106.9% | 109.6% | 92.7% | 104% | 107% | 104% | 105% | 108% | 108% | 105% | 108% | 104% | 76.7 ng·h/mL | 382 ± 65 min | 35.6 ± 10.2 ng/mL | 6.25 h | 72.1 ng·h/mL | < 0.767 h | 30 (30, 45) min |  | 
2 | COc1ccc(-c2coc3cc(O[C@@H]4O[C@H](CO)[C@@H](O)[C@H](O)[C@H]4O)ccc3c2=O)cc1O [Calycosin-7-glucoside, calycosin-7-glucoside] | 107.4% | 108.1% | 107.3% |  |  |  | 103% | 106% | 96% | 102% | 108% | 94.3% |  |  |  |  |  |  | 45 (45, 60) min | < 0.767 h | remaining at 24 h ([1]; high QC concentration): 103%; remaining at 24 h ([1]; low QC concentration): 104%; remaining at 24 h ([1]; medium QC concentration): 104%; AUC(0-inf) [2]: 79.3 ng·h/mL; half-life [2]: 266 ± 44 min; Cmax [2]: 52.2 ± 14.8 ng/mL; MRT last [2]: 2.17 h; AUC(0-t) [2]: 77.4 ng·h/mL
3 | COc1cc2c(cc1OC)[C@@H]1Cc3ccc(OC)c(OC)c3CN1CC2 [Tetrahydropalmatine, tetrahydropalmatine] | 108.1% | 89.9% | 107.4% | 101% | 105% | 98.4% | 102% | 103% | 101% | 103% | 104% | 103% | 184 ng·h/mL | 310 ± 54 min | 42 ± 13.4 ng/mL | 8.2 h | 170 ng·h/mL | 3.15 h | 180 (180, 180) min |  | 
4 | COc1ccc(-c2coc3cc(O)ccc3c2=O)cc1 [Formononetin, formononetin] |  |  |  |  |  |  |  |  |  |  |  |  |  |  |  |  | 15.2 ng·h/mL |  | 45 (30, 45) min | < 0.767 h | AUC(0-inf) [2]: 18.7 ng·h/mL; half-life [2]: 951 ± 97 min; Cmax [2]: 6.79 ± 2.18 ng/mL; MRT last [2]: 12.9 h
5 | C[C@@]12C[C@@]3(O)O[C@@H](O1)[C@]1(COC(=O)c4ccccc4)[C@H]3C[C@@]12O[C@@H]1O[C@H](CO)[C@@H](O)[C@H](O)[C@H]1O [Paeoniflorin, paeoniflorin] | 105.0% | 107.8% | 106.4% | 103% | 98.3% | 105% | 96.4% | 102% | 102% | 104% | 98.6% | 104% | 1230 ng·h/mL | 210 ± 38 min | 905 ± 226 ng/mL | 3.32 h | 1220 ng·h/mL | < 0.767 h |  |  | Concentration that inhibits phosphorylation of ERK, JNK, IKK [3]: 25 ng/mL; IC50 [4]: 420 µM
6 | O=C(/C=C/c1ccc(O)cc1)c1ccc(O)cc1O [Isoliquiritigenin, isoliquiritigenin] | 105.2% | 106.3% | 107.0% | 102% | 94.6% | 102% | 103% | 102% | 103% | 102% | 103% | 96.2% | 2750 ng·h/mL | 293 ± 48 min | 337 ± 103 ng/mL | 7.75 h | 2650 ng·h/mL | 3 h |  |  | Effect on NLRP3-activated ASC oligomerization [5]: inhibit NACHT, LRR and PYD domains-containing protein 3 (NLRP3)-activated apoptosis-associated speck-like protein (ASC) oligomerization; Effect on LPS-induced TLR4/MD2 complex signaling and NF-κB activation [6]: block lipopolysaccharides (LPS)-induced toll-like receptor 4 (TLR4)/MD2 complex signaling and nuclear factor NF-κB activation; Concentration that inhibits NLRP3-dependent IL-1β production ([7]; at both the priming step and the activation step): 1 µM; Concentration that inhibits NLRP3-dependent IL-1β production, converted to mass concentration ([7]; printed as equal to 1 µM): 256 ng/mL
